In patent publication US20050009820A1, “Thiochromenones used to combat painful conditions and neurodegenerative diseases” (priority 2001, published 2005):

Columns and labels:
mGluR1 receptor = target: T1, mGluR1 receptor (Homo sapiens, UniProt Q13255); experiment: Determination of the activity on the mGluR1 receptor (luciferase luminescence in mGluR1 receptor-expressing CHO cells stimulated with 1 mM glutamate); assay type: cell-based; details: 1 mM glutamate with the test substance, 37° C., 4 h, luminescence readout
T1 construct: expressed in transfected cells; host or cells: CHO cells
Method: 1. Determination of the activity on the mGluR1 receptor
mGluR1 receptor-expressing CHO cells are seeded in 96-well plates (Greiner, Frickenhausen, Germany) (20 000 cells/well) and cultivated in ultra CHO medium (Bio-Whittaker, Walkersville, Md., 10% fetal calf serum) for one day. The substances to be tested are initially dissolved in a concentration of 10^−2 M in 100% DMSO and then diluted to the desired concentration with the culture medium. After being washed once with cell culture medium, the cells are incubated with 1 mM glutamate and simultaneously with the substance to be tested at 37° C. for 4 h. The medium is then aspirated off and the cells are lysed with 75 μl of Triton-luciferase buffer (1% Triton X 100, 10% glycerol, 2 mM DTT, 25 mM Na2HPO4, 25 mM TRIS), (530 μM ATP, 470 μM luciferin, 270 μM CoA, 20 mM tricine, 2.67 mM MgSO4, 33.3 mM DTT, 0.1 mM EDTA, pH 7.8). The luminescence is measured after one minute using a camera (Hamamatsu, Japan). Cells incubated only with glutamate show a marked increase in the luminescence compared with controls, while mGluR1 receptor antagonists reduce this concentration-dependently to below the initial luminscence.

T1 sequence (Q13255 19-1194): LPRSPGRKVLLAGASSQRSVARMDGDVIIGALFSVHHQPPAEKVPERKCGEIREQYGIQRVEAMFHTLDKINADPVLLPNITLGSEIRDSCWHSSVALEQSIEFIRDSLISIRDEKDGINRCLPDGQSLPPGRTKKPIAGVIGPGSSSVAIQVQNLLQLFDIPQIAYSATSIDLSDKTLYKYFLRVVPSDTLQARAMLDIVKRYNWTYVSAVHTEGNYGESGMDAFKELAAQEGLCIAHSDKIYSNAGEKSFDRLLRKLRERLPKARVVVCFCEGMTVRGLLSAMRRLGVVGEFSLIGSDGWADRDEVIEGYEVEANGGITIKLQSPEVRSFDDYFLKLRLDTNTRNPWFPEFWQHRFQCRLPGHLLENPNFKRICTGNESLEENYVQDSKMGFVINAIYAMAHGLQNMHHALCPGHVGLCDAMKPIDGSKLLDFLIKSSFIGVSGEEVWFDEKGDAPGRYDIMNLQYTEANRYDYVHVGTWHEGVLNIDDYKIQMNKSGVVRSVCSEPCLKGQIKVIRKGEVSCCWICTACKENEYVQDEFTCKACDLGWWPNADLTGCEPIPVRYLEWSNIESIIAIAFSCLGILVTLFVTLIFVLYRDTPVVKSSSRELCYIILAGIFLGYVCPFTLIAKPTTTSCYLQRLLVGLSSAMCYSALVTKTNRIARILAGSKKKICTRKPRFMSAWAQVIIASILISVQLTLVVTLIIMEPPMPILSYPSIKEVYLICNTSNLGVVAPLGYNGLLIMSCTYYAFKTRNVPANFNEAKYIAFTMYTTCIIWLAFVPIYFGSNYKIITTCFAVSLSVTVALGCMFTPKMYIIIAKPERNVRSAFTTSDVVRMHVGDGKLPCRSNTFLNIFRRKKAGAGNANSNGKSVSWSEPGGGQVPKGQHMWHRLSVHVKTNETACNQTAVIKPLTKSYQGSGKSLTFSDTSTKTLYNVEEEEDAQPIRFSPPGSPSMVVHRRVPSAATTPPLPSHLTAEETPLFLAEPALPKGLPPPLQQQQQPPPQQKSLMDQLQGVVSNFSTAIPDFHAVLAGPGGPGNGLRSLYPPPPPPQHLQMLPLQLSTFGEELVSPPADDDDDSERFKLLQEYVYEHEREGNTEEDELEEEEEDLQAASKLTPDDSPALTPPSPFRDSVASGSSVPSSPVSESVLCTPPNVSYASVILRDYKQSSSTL

Row | IC50 (mGluR1 receptor) [nM] | melting point [°C] | SMILES
1 | 9 |  | CCC1CCc2c(sc3cc(-c4nnn[nH]4)ccc3c2=O)C1 (stereo not shown) [Example 1-3, 3-Ethyl-6-(1H-tetrazol-5-yl)-1,2,3,4-tetrahydro-9H-thioxanthen-9-one]
2 | 97 |  | CCC1CCc2c(sc3cc(-c4cccs4)ccc3c2=O)C1 (stereo not shown) [Example 1-10, 3-Ethyl-6-(2-thienyl)-1,2,3,4-tetrahydro-9H-thioxanthen-9-one]
3 | 23 |  | CC1(C)CCc2c(sc3cc(-c4cccc(C#N)c4)ccc3c2=O)C1 [Example 1-27, 3-(3,3-Dimethyl-9-oxo-2,3,4,9-tetrahydro-1H-thioxanthen-6-yl)benzonitrile]
4 | 21 |  | CCC1CCc2c(sc3cc(-c4cccc(C#N)c4)ccc3c2=O)C1 (stereo not shown) [Example 1-29, 3-(3-Ethyl-9-oxo-2,3,4,9-tetrahydro-1H-thioxanthen-6-yl)benzonitrile]
5 | 31 |  | CC1(C)CCc2c(sc3cc(-c4cccnc4)ccc3c2=O)C1 [Example 1-31, 3,3-Dimnethyl-6-(3-pyridinyl)-1,2,3,4-tetrahydro-9H-thioxanthen-9-one]
6 | 81 |  | CCC1CCc2c(sc3cc(-c4noc(=O)[nH]4)ccc3c2=O)C1 (stereo not shown) [Example 1-34, 3-(3-Ethyl-9-oxo-2,3,4,9-tetrahydro-1H-thioxanthen-6-yl)-1,2,4-oxadiazol-5(4H)-one]
7 |  | 272 | CC1(C)CCc2c(sc3cc(NS(C)(=O)=O)ccc3c2=O)C1 [Example 2-11, N-(3,3-Dimethyl-9-oxo-2,3,4,9-tetrahydro-1H-thioxanthen-6-yl)methanesulfonamide]
8 |  | 231 | CC1(C)CCc2c(sc3cc(NS(=O)(=O)c4ccccc4)ccc3c2=O)C1 [Example 2-12, N-(3,3-Dimethyl-9-oxo-2,3,4,9-tetrahydro-1H-thioxanthen-6-yl)benzenesulfonamide]
9 |  | 279 | Cc1ccc(S(=O)(=O)Nc2ccc3c(=O)c4c(sc3c2)CC(C)(C)CC4)cc1 [Example 2-13, N-(3,3-Dimethyl-9-oxo-2,3,4,9-tetrahydro-1H-thioxanthen-6-yl)-4-methylbenzenesulfonamide]
10 |  | 249 | CC1(C)CCc2c(sc3cc(OS(=O)(=O)Cc4ccccc4OC(F)(F)F)ccc3c2=O)C1 [Example 2-14, 3,3-Dimethyl-9-oxo-2,3,4,9-tetrahydro-1H-thioxanthen-6-yl [2-(trifluoromethoxy)-phenyl]methanesulfonate]
11 |  | 263 | CC(C)S(=O)(=O)Nc1ccc2c(=O)c3c(sc2c1)CC(C)(C)CC3 [Example 2-15, N-(3,3-Dimethyl-9-oxo-2,3,4,9-tetrahydro-1H-thioxanthen-6-yl)isopropylsulfonamide]
12 |  | 169 | CC1(C)CCc2c(sc3cc(-n4cccc4)ccc3c2=O)C1 [Example 2-24, 3,3-Dimethyl-6-(1H-pyrrol-1-yl)-1,2,3,4-tetrahydro-9H-thioxanthen-9-one]
13 |  | 145 | CCC1CCc2c(sc3cc(-n4cccc4)ccc3c2=O)C1 (stereo not shown) [Example 2-25, 3-Ethyl-6-(1H-pyrrol-1-yl)-1,2,3,4-tetrahydro-9H-thioxanthen-9-one]
14 | 22 |  | CCC1CCc2c(sc3cc(N(C)CCOC)ccc3c2=O)C1 (stereo not shown) [Example 3-21, 3-Ethyl-6-[(2-methoxyethyl)(methyl)amino]-1,2,3,4-tetrahydro-9H-thio-xanthen-9-one]
15 | 13 |  | CCC1CCc2c(sc3cc(N4CCCCC4)ccc3c2=O)C1 (stereo not shown) [Example 3-22, 3-Ethyl-6-(1-piperidinyl)-1,2,3,4-tetrahydro-9H-thioxanthen-9-one]
16 | 28 |  | CCC1CCc2c(sc3cc(N4CCCCC4)c(F)cc3c2=O)C1 (stereo not shown) [Example 3-23, 3-Ethyl-7-fluoro-6-(1-piperidinyl)-1,2,3,4-tetrahydro-9H-thioxanthen-9-one]
17 | 35 |  | CCC(=O)Nc1ccc2c(=O)c3c(sc2c1)CC(CC)CC3 (stereo not shown) [Example 3-49, N-(3-Ethyl-9-oxo-2,3,4,9-tetrahydro-1H-thioxanthen-6-yl)propanamide]
18 | 35 |  | CCC1CCc2c(sc3cc(-c4cncnc4)ccc3c2=O)C1 (stereo not shown) [Example 3-55]
19 | 25 |  | CCC1CCc2c(sc3cc(N(C)S(=O)(=O)c4cccc(C#N)c4)ccc3c2=O)C1 (stereo not shown) [Example 4-8, 3-Cyano-N-(3-ethyl-9-oxo-2,3,4,9-tetrahydro-1-thioxanthen-6-yl)-N-methylbenzenesulfonamide]
